This test concerns the target T1, amyloid-β 42 (Aβ42), monomeric (Homo sapiens, UniProt P05067).
T1 construct: gene APP; Aβ42, monomeric 42-residue peptide, N-terminally biotinylated for BLI
Kind of test: biolayer interferometry (kon/koff global fit); supported by 2D HN-BESTCON NMR and dot-blot sequestration fit (Kd […]). In kind it is binding.

T1 sequence (P05067 672-713): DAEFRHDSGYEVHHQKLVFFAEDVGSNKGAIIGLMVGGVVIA

With `O=[N+]([O-])c1ccc(Nc2ccccc2-c2ccccc2)c2nonc12` [10074-G5, biphenyl-2-yl-(7-nitro-benzo[1,2,5]oxadiazol-4-yl)-amine], binding was characterised by a dissociation constant (Kd) of 6 µM.

(Values after PMC7673680, “Small-molecule sequestration of amyloid-β as a drug discovery strategy for Alzheimer’s disease” (Science Advances, 2020).)
